Measurements as given in patent US8592469B2, “Diazonamide analogs” (Joyant Pharmaceuticals, Inc., priority 2012, dated 2013).

Key:
A2058 cells = assay: Cell viability assay (Cell-Titer-Glo) in A2058 cells; format: cell-based; conditions: Homo sapiens, 48 hour treatment, test compounds 1 nM to 1 μM
Protocol: (§1) Cell viability assays were run using standard protocols known to those of skill in art. Cells were plated in 96 well plates at the density of 3,000-10,000 cells per well. Twenty four hours later, cells were treated with increasing concentration of test compounds (1 nM to 1 μM). After another 48 hour, cell survival was measured using Cell-Titer-Glo® reagent (Promega) following the protocol provided by the manufacture. The IC50 value was determined as the concentration of test compound that kills 50% of the cell population.
(§2) Cell viability data generated according to the protocol described above was generated for representative compounds in A2058 and U937 cells. The compounds shown in Table 1 were prepared by the methods described herein for structurally similar compounds. The reference compound was a synthetic diazonamide analog having the structure: […]

U937 cells = assay: Cell viability assay (Cell-Titer-Glo) in U937 cells; format: cell-based; conditions: test compounds 1 nM to 1 μM
Protocol: as §1, §2

[1] = Homo sapiens, U-937, 48 hour treatment

Compound | IC50 (A2058 cells) [nM] | IC50 (U937 cells; [1]) [nM] | IC50 (U937 cells; 48 hour treatment) [nM]
CC(C)[C@H](O)C(=O)N[C@H]1Cc2ccc(O)c(c2)[C@]2(CNc3ccccc32)C2=C(c3nc(CO)co3)N=C(O2)[C@H](C(C)C)NC1=O (single isomer, unassigned) [Compound 102] | 492 | 225 | 
CC(C)[C@H](O)C(=O)NC1Cc2ccc3c(c2)C2(C4=C(c5nc(COC(=O)C(C)(C)C)co5)N=C(O4)[C@H](C(C)C)NC1=O)c1ccccc1N[C@H]2O3 (stereo partly shown) [Compound 21] | 40 | 20 | 
CC(=O)OCc1coc(-c2nc3oc2C24c5ccccc5N[C@H]2Oc2ccc(cc24)C[C@H](NC(=O)[C@@H](O)C(C)C)C(=O)N[C@H]3C(C)C)n1 (stereo partly shown) [Compound 22] | 52 | 19 | 
CC(C)[C@H](O)C(=O)NC1Cc2ccc3c(c2)C2(C4=C(c5nc(COC=O)co5)N=C(O4)[C@H](C(C)C)NC1=O)c1ccccc1N[C@H]2O3 (stereo partly shown) [Compound 23] | 57 | 21 | 
COC(=O)OCc1coc(-c2nc3oc2C24c5ccccc5N[C@H]2Oc2ccc(cc24)CC(NC(=O)[C@@H](O)C(C)C)C(=O)N[C@H]3C(C)C)n1 (stereo partly shown) [Compound 24] | 26 | 19.7 | 
CC(C)[C@H](O)C(=O)N[C@H]1Cc2ccc3c(c2)C2(C4=C(c5nc(COP(=O)(O)O)co5)N=C(O4)[C@H](C(C)C)NC1=O)c1ccccc1N[C@H]2O3 (stereo partly shown) [Compound 25] | 70.8 | 36.9 | 
COC(=O)OCc1coc(-c2nc3oc2C24c5ccccc5N[C@H]2Oc2ccc(cc24)CC(NC(=O)[C@@H](O)C(C)C)C(=O)N[C@H]3C(C)(C)C)n1 (stereo partly shown) [Compound 26] | 3.33 | 2.88 | 
CC(C)[C@@H]1NC(=O)C(NC(=O)[C@@H](O)C(C)(C)C)Cc2ccc3c(c2)C2(C4=C(c5nc(CO)co5)N=C1O4)c1ccccc1N[C@H]2O3 (stereo partly shown) [Compound 27] | 112 | 98 | 
CC(C)C[C@H](O)C(=O)N[C@H]1Cc2ccc3c(c2)C2(C4=C(c5nc(CO)co5)N=C(O4)[C@H](C(C)C)NC1=O)c1ccccc1N[C@H]2O3 (stereo partly shown) [Compound 28] | 143 | 112 | 
CC(O)c1coc(-c2nc3oc2C24c5ccccc5N[C@H]2Oc2ccc(cc24)C[C@H](NC(=O)[C@@H](O)C(C)C)C(=O)N[C@H]3C(C)C)n1 (stereo partly shown) [Compound 29] | 119 | 59 | 
CC(=O)c1coc(-c2nc3oc2C24c5ccccc5N[C@H]2Oc2ccc(cc24)C[C@H](NC(=O)[C@@H](O)C(C)C)C(=O)N[C@H]3C(C)C)n1 (stereo partly shown) [Compound 30] | 60 | 13 | 
CC(C)[C@H](O)C(=O)N[C@H]1Cc2ccc3c(c2)C2(C4=C(c5nc(C(C)(C)O)co5)N=C(O4)[C@H](C(C)C)NC1=O)c1ccccc1N[C@H]2O3 (stereo partly shown) [Compound 31] | 602 | 259 | 
CNCc1coc(-c2nc3oc2C24c5ccccc5N[C@H]2Oc2ccc(cc24)C[C@H](NC(=O)[C@@H](O)C(C)C)C(=O)N[C@H]3C(C)C)n1 (stereo partly shown) [Compound 32] | > 1000 | > 1000 | 
CC(C)[C@H](O)C(=O)N[C@H]1Cc2ccc3c(c2)C2(C4=C(c5nc(CN)co5)N=C(O4)[C@H](C(C)C)NC1=O)c1ccccc1N[C@H]2O3 (stereo partly shown) [Compound 33] | > 1000 | > 1000 | 
COC(=O)NCc1coc(-c2nc3oc2C24c5ccccc5N[C@H]2Oc2ccc(cc24)C[C@H](NC(=O)[C@@H](O)C(C)C)C(=O)N[C@H]3C(C)C)n1 (stereo partly shown) [Compound 34] | 149 | 134 | 
CC(C)[C@H](O)C(=O)NC1Cc2ccc3c(c2)C2(C4=C(c5nc(CNS(C)(=O)=O)co5)N=C(O4)[C@H](C(C)C)NC1=O)c1ccccc1N[C@H]2O3 (stereo partly shown) [Compound 35] | 151 | 198 | 
CC(C)[C@H](O)C(=O)N[C@H]1Cc2ccc3c(c2)C2(C4=C(c5nc(CNS(=O)(=O)c6ccccc6)co5)N=C(O4)[C@H](C(C)C)NC1=O)c1ccccc1N[C@H]2O3 (stereo partly shown) [Compound 36] | 194 | 209 | 
COC(=O)Nc1coc(-c2nc3oc2C24c5ccccc5N[C@H]2Oc2ccc(cc24)CC(NC(=O)[C@@H](O)C(C)C)C(=O)N[C@H]3C(C)C)n1 (stereo partly shown) [Compound 37] | 235 | 178 | 
CC(=O)Nc1oc(-c2nc3oc2C24c5ccccc5N[C@H]2Oc2ccc(cc24)CC(NC(=O)[C@@H](O)C(C)C)C(=O)N[C@H]3C(C)C)nc1C#N (stereo partly shown) [Compound 38] | > 1000 | > 1000 | 
CC(C)[C@H](O)C(=O)N[C@H]1Cc2ccc3c(c2)C2(C4=C(c5nc(C#N)co5)N=C(O4)[C@H](C(C)C)NC1=O)c1ccccc1N[C@H]2O3 (stereo partly shown) [Compound 39] | 23 | 71 | 
Cc1oc(-c2nc3oc2[C@@]24c5ccccc5NC2Oc2ccc(cc24)CC(NC(=O)[C@@H](O)C(C)C)C(=O)N[C@H]3C(C)C)nc1C#N (stereo partly shown) [Compound 40] | 182 | 210 | 
CC(C)[C@H](O)C(=O)NC1Cc2ccc3c(c2)C2(C4=C(c5nc(C6OCCCO6)co5)N=C(O4)[C@H](C(C)C)NC1=O)c1ccccc1N[C@H]2O3 (stereo partly shown) [Compound 41] | 65 | 65 | 

Compound | IC50 (A2058 cells) [nM] | IC50 (U937 cells; [1]) [nM] | IC50 (U937 cells; 48 hour treatment) [nM]
CC(C)[C@H](O)C(=O)NC1Cc2ccc3c(c2)C2(C4=C(c5nc(C6OCCO6)co5)N=C(O4)[C@H](C(C)C)NC1=O)c1ccccc1N[C@H]2O3 (stereo partly shown) [Compound 42] | 49 | 43 | 
CC(C)[C@H](O)C(=O)N[C@H]1Cc2ccc3c(c2)C2(C4=C(c5nc(C6=NCCO6)co5)N=C(O4)[C@H](C(C)C)NC1=O)c1ccccc1N[C@H]2O3 (stereo partly shown) [Compound 43] | 22 | 19 | 
CC(C)[C@H](O)C(=O)NC1Cc2ccc3c(c2)[C@]2(C4=C(c5nc(-c6nnn[nH]6)co5)N=C(O4)[C@H](C(C)C)NC1=O)c1ccccc1NC2O3 (stereo partly shown) [Compound 44] | > 1000 | > 1000 | 
CC(C)[C@H](O)C(=O)NC1Cc2ccc3c(c2)[C@]2(C4=C(c5nc(-c6ncc[nH]6)co5)N=C(O4)[C@H](C(C)C)NC1=O)c1ccccc1NC2O3 (stereo partly shown) [Compound 45] | 589 | 318 | 
Cc1nc(-c2coc(-c3nc4oc3[C@@]35c6ccccc6NC3Oc3ccc(cc35)C[C@H](NC(=O)[C@@H](O)C(C)C)C(=O)N[C@H]4C(C)C)n2)no1 (stereo partly shown) [Compound 46] | 49 | 76.9 | 
Cc1noc(-c2coc(-c3nc4oc3[C@@]35c6ccccc6NC3Oc3ccc(cc35)C[C@H](NC(=O)[C@@H](O)C(C)C)C(=O)N[C@H]4C(C)(C)C)n2)n1 (stereo partly shown) [Compound 47] | 7.06 | 14.2 | 
Cc1nnc(-c2coc(-c3nc4oc3[C@@]35c6ccccc6NC3Oc3ccc(cc35)C[C@H](NC(=O)[C@@H](O)C(C)C)C(=O)N[C@H]4C(C)(C)C)n2)o1 (stereo partly shown) [Compound 48] | 6.11 | 6.34 | 
COC(=O)c1coc(-c2nc3oc2C24c5ccccc5NC2Oc2ccc(cc24)C[C@H](NC(=O)[C@@H](O)C(C)C)C(=O)N[C@H]3CC(C)C)n1 (stereo partly shown) [Compound 49] | > 1000 | 223 | 
COC(=O)c1coc(-c2nc3oc2C24c5ccccc5NC2Oc2ccc(cc24)C[C@H](NC(=O)[C@@H](O)C(C)C)C(=O)N[C@H]3C(C)(C)C)n1 (stereo partly shown) [Compound 50] | 53 | 12 | 
COC(=O)c1coc(-c2nc3oc2C24c5ccccc5NC2Oc2ccc(cc24)C[C@H](NC(=O)[C@@H](O)C(C)C)C(=O)N[C@H]3Cc2ccccc2)n1 (stereo partly shown) [Compound 51] | > 1000 | > 1000 | 
CCC[C@@H]1NC(=O)[C@@H](NC(=O)[C@@H](O)C(C)C)Cc2ccc3c(c2)C2(C4=C(c5nc(C(=O)OC)co5)N=C1O4)c1ccccc1NC2O3 (stereo partly shown) [Compound 52] | 257 | 71 | 
COC(=O)c1coc(-c2nc3oc2[C@@]24c5ccccc5NC2Oc2ccc(cc24)C[C@H](NC(=O)[C@@H](O)C(C)C)C(=O)NC3)n1 (stereo partly shown) [Compound 53] | > 1000 | > 1000 | 
COC(=O)c1coc(-c2nc3oc2[C@@]24c5ccccc5NC2Oc2ccc(cc24)C[C@H](NC(=O)[C@@H](O)C(C)C)C2=NC3CO2)n1 (stereo partly shown) [Compound 54] | > 1000 | > 1000 | 
CC(C)[C@H](O)C(=O)N[C@H]1Cc2ccc3c(c2)[C@]2(C4=C(c5nc(CO)co5)N=C(O4)[C@H](C)NC1=O)c1ccccc1NC2O3 (stereo partly shown) [Compound 55] | > 1000 | > 1000 | 
COC(=O)c1coc(-c2nc3oc2[C@@]24c5ccccc5NC2Oc2ccc(cc24)C[C@H](NC(=O)[C@@H](O)C(C)C)C(=O)N[C@H]3C)n1 (stereo partly shown) [Compound 56] | 968 | 588 | 
CC(C)[C@H](O)C(=O)N[C@H]1Cc2ccc3c(c2)[C@]2(C4=C(c5nc(CO)co5)N=C(O4)[C@H](C(C)(C)C)NC1=O)c1ccccc1N[C@@H]2O3 [Compound 57] | 8.3 | 5.3 | 
COC(=O)c1coc(-c2nc3oc2[C@@]24c5ccccc5NC2Oc2ccc(cc24)C[C@H](NC(=O)[C@@H](O)C(C)C)C(=O)N[C@H]3C2CCCCC2)n1 (stereo partly shown) [Compound 58] | > 1000 | 445 | 
COC(=O)c1coc(-c2nc3oc2[C@]24c5ccccc5NC2Oc2ccc(cc24)C[C@H](NC(=O)[C@@H](O)C(C)C)C(=O)N[C@H]3C(C)(C)C)n1 (stereo partly shown) [Compound 59] |  |  | 69
CC(C)[C@H](O)C(=O)N[C@H]1Cc2ccc3c(c2)[C@]2(C4=C(c5nc(CO)co5)N=C(O4)[C@H](C4CCCCC4)NC1=O)c1ccccc1NC2O3 (stereo partly shown) [Compound 60] | > 1000 | 795 | 
COC(=O)c1coc(-c2coc([C@@H]3CCCN3C(=O)[C@H](Cc3ccc4c(c3)[C@@H]3c5ccccc5NC3O4)NC(=O)[C@@H](O)C(C)C)n2)n1 (stereo partly shown) [Compound 61] | > 1000 | 761 | 
CC(C)[C@H](O)C(=O)N[C@H]1Cc2ccc3c(c2)C2(C4=C(c5nc(C#N)co5)N=C(O4)[C@H](C(C)(C)C)NC1=O)c1ccccc1N[C@H]2O3 (stereo partly shown) [Compound 62] | 2.54 | 15.6 | 
